Experiments:
[1] = tested on: meningeal lymphatic vessels; test: Visudyne ablation, OVA-A647 CSF tracer drainage and brain influx (Example 2); type: in vivo, C57BL/6 mice; settings: vs vehicle
Method: Adult C57BL/6 mice were injected with visudyne or vehicle (ICM) followed by a step of photoconversion. 7 days post ablation, 2.5 μg of ovalbumin-Alexa647 (OVA-A647) was injected into the CSF (ICM) and mice were transcardially perfused with saline 2 h after. j, Representative sections of dcLNs were stained with DAPI and LYVE-1, and levels of drained OVA-A647 were measured, and representative sections are shown for vehicle (FIG. 24A) and visudyne (FIG. 24B). OVA-A647 alone is shown in the inset in the upper right corner of each of FIGS. 24A and 24B, and LYVE-1 alone is shown in the inset in the lower right corner of each of FIGS. 24A and 24B.

[2] = tested on: meningeal lymphatic vessels; test: Visudyne ablation then repeated Aβ42 injection into CSF, meningeal aggregates (Example 8); type: in vivo, C57BL/6 mice; settings: Aβ42 2.5 μg every 24 h into CSF for 5 days, from 72 h after ablation, vs vehicle
Method: C57BL/6 adult mice were anesthetized and injected ICM with visudyne to induce meningeal lymphatic vessel ablation, or vehicle as a control. After the photoconversion step, mice were allowed to recover for 72 h. Then, catheters were implanted in the cisterna magna of all mice and 2.5 μg of Aβ42 were injected every 24 h into the CSF for a total of 5 days. […] Results are presented as mean±s.e.m.; n=5 per group; *P<0.05, **P<0.01, one-tailed Mann-Whitney test.

[3] = tested on: meningeal lymphatic vessels; test: EAE (MOG35-55) after Visudyne meningeal lymphatic ablation; type: in vivo, C57b16 mice
Method: FIG. 22 is a graph showing ablation of the meningeal lymphatic decreases EAE score. Adult C57b16 mice were injected ICV (cisterna magna) or intranasally with Visudyne that was then photoconverted (Meningeal ablation) or not (Control). On the same day, EAE was induced by injected MOG 35-55 emulsion subcutaneously. At day 17 mice were scored prior to sacrifice (brain, meninges, and spinal cord were harvested for IHC to measure the amount of demyelination and the infiltrate).
EAE clinical symptom development in laser. Visudyne (i.n.)+laser and Visudyne (i.c.m.)+laser treated mice. (mean±s.e.m. n=12-41 mice/group pooled from 3 independent experiments, ****p<0.0001, repeated measures 2 way ANOVA with Tukey's multiple comparisons test) is shown in FIG. 51A. Incidence of EAE development (day mice reach a score of 1 or above) in laser, Visudyne (i.n.)+laser and Visudyne (i.c.m.)+laser treated mice. Representative dot plots of CD4 and CD8 T cells in the spinal cord of laser and Visudyne (i.c.m.)+laser mice during late onset EAE (D17) are shown in FIG. 51C. Quantification of the number of CD4 T cells in the spinal cord of laser and Visudyne (i.c.m.)+laser treated mice at D17 post immunization. (mean±s.e.m. n=4/5 mice per group, representative of 2 independent experiments, **p=0.005, unpaired t test) is shown in FIG. 51D. […] Accordingly, it is contemplated that ablation of lymphatic vessels in accordance with some embodiments herein can ameliorate symptoms and disease development of MS, for which EAE (MOG) is a model.

meningeal lymphatics = test: Photoablation of meningeal lymphatics, Visudyne 5 or 20 μg, 690 nm laser (FIG. 14); type: in vivo, mice; settings: 5 or 20 μg i.c.v., 24 hrs post-ablation
Method: Meninges were stained for Lyve-1, Prox1 and CD31 24 hrs post-ablation. […] In FIG. 14C, the top panel refers to a control, the middle mane refers to 20,000 ng of Visudyne, and the bottom panel refers to 5,000 ng of Visudyne.

meningeal lymphatic = test: Lymphatic drainage of fluorescent microbeads into deep cervical lymph nodes (FIG. 15); type: in vivo, mice; settings: pharmacological ablation, 24 h after ablation, vs PBS
Method: FIGS. 15A-E are a series of diagrams, microscope images, and graphs showing modulation of the meningeal lymphatic affects drainage into the cervical lymph nodes. […] Fluorescent microbeads (0.5 μm in diameter-5 μl) were injected in the lateral ventricle of mice at a rate of 0.5 μl/min. 30 min later, the deep cervical lymph nodes were harvested, sliced and immunostained for the presence of fluorescent beads. FIG. 15B is a pair of representative sections of deep cervical lymph nodes from sham operated (left) and ligated (right) mice immunostained for lymphatic vasculature (Lyve-1), fluorescent microbeads and Lyve-1. Note the accumulation of microbeads in the subcapsular space of the lymph nodes in the sham operated mice (left). […] N=3-4 mice per group, Student-t-test. d. Quantification of the coverage of dCLN section by fluorescent beads in PBS and Visudyne injected mice (24 h after ablation). N=3-5 mice per group, *p<0.05, Student-t-test. e. Quantification of the coverage of dCLN section by fluorescent beads in PBS and VEGF-c injected mice (5 days after VEGF-c injection). N=4 mice per group.

nasal lymphatics = test: Nasal lymphatics after intranasal Visudyne (Example 25); type: in vivo, mice; settings: 24 h after intranasal (i.n.) injection
Method: Adult mice were injected i.c.m. with Visudyne. Fifteen to thirty minutes injection, Visudyne was converted using a non-thermal 689 nm laser applied on the intact skull. In the targeted group, the laser was aimed at 5 different spots localized above the meningeal lymphatics. In the non-targeted group, the laser was aimed further away to no convert the Visudyne localized within the meningeal lymphatics.
The density of exogenously injected T cells per mm2 of dCLN in targeted and non-targeted Visudyne treated mice was quantified (FIG. 49A) (expressed as percentage of the control condition)(mean±s.e.m, n=4-6 mice/group, **p=0.0072 Student t test). Images of the nasal lymphatics (Prox1GFP—green, Lyve1—red) were obtained 24 h after laser or intranasal (i.n.) injection of Visudyne. The inset illustrate the lymphatic bundle at the base of the skull that gets ablated after Visudyne treatment. Scale bar=50 μm. The density of T cells per mm2 of dCLN was quantified (FIG. 49B) or percentage of beads coverage was quantified (FIG. 49C) in the dLCN of laser, Visudyne (i.n.)+laser and Visudyne (i.c.m.)+laser treated mice (expressed as percentage of the control condition). […] T cells were quantified in the meninges of laser and Visudyne (i.c.m.)+laser treated mice at 7 days post ablation. T cells were quantified in the meninges of laser and Visudyne (i.c.m.)+laser treated mice (FIG. 49D). […]

Which results are given for verteporfin [Visudyne]?
amount of OVA-A647 drained into the dcLNs ([1]; 2 h after OVA-A647 2.5 μg ICM, 7 days post ablation): significantly decreased; OVA-A647 influx into the brain parenchyma ([1]; 2 h after OVA-A647 ICM, 7 days post ablation): significant decrease; brain parenchyma coverage by aquaporin 4 (AQP4) expressing cells ([1]; adult mice, visudyne-induced ablation): no changes; area occupied by Aβ aggregates in meningeal whole-mounts [2]: significant increase in aggregates; EAE disease development ([3]; Visudyne (i.c.m.)+laser vs laser and Visudyne (i.n.)+laser): ameliorate disease development; MOG-specific T cell activation in the deep cervical lymph nodes ([3]; Visudyne (i.c.m.)+laser vs laser, EAE): ameliorates MOG-specific T cell activation; EAE score / disease severity ([3]; Visudyne ICV (cisterna magna) or intranasal, photoconverted vs not, scored day 17): decreases disease severity; effect on the blood vessels (CD31) (meningeal lymphatics): No effect on the blood vessels; meningeal lymphatics in superior sagittal and transverse sinuses (Lyve-1, Prox1) (meningeal lymphatics): Disruption of lymphatics; lymphatic drainage into the cervical lymph nodes after ablation (meningeal lymphatic): alteration of lymphatic drainage; nasal lymphatic bundle at the base of the skull (nasal lymphatics): gets ablated
